Experimental data: the NIST ThermoML archive (doi:10.1021/acs.jced.8b01095)
Numbers after ± are expanded uncertainties.

Legend:
[1] = Liquid; for viscosity: 2 kPa, Falling or rolling sphere viscometry; for speed of sound / mass density: 100 kPa; for speed of sound: Single path-length method; for mass density: Vibrating tube method
[2] = molar heat capacity at constant pressure; conditions: 100 kPa, Liquid, Extra sensitive DSC
[3] = xn = mol fraction of the nth substance listed; conditions: Liquid, x1 = 1; for viscosity: 2 kPa, Falling or rolling sphere viscometry; for speed of sound / mass density: 100 kPa; for speed of sound: Single path-length method; for mass density: Vibrating tube method

**Q.** Which results are given for `CCCC[n+]1ccn(C)c1.O=S(=O)([N-]S(=O)(=O)C(F)(F)F)C(F)(F)F`?
**A.** viscosity ([1]; 298.15 K): 49.24 ± 7.4 mPa·s; speed of sound ([1]; 298.15 K): 1227.9 ± 1.1 m/s; mass density ([1]; 298.15 K): 1436.62 ± 1.7 kg/m3; viscosity ([1]; 303.15 K): 40 ± 6.5 mPa·s; speed of sound ([1]; 303.15 K): 1216.8 ± 1.1 m/s; mass density ([1]; 303.15 K): 1431.8 ± 1.7 kg/m3; viscosity ([1]; 308.15 K): 33.02 ± 5 mPa·s; speed of sound ([1]; 308.15 K): 1205.8 ± 1.1 m/s; mass density ([1]; 308.15 K): 1426.98 ± 1.7 kg/m3; viscosity ([1]; 313.15 K): 27.66 ± 3.9 mPa·s; speed of sound ([1]; 313.15 K): 1195 ± 1.1 m/s; mass density ([1]; 313.15 K): 1422.16 ± 1.7 kg/m3; viscosity ([1]; 318.15 K): 23.47 ± 3.1 mPa·s; speed of sound ([1]; 318.15 K): 1184.2 ± 1.1 m/s; mass density ([1]; 318.15 K): 1417.34 ± 1.7 kg/m3; viscosity ([1]; 323.15 K): 20.15 ± 2.8 mPa·s; speed of sound ([1]; 323.15 K): 1173.6 ± 1.1 m/s; mass density ([1]; 323.15 K): 1412.52 ± 1.7 kg/m3; molar heat capacity at constant pressure ([2]; 298.15 K): 567.22 ± 26 J/K/mol; molar heat capacity at constant pressure ([2]; 303.15 K): 569.85 ± 26 J/K/mol; molar heat capacity at constant pressure ([2]; 308.15 K): 572.64 ± 27 J/K/mol; molar heat capacity at constant pressure ([2]; 313.15 K): 575.47 ± 27 J/K/mol; molar heat capacity at constant pressure ([2]; 318.15 K): 578.38 ± 27 J/K/mol; molar heat capacity at constant pressure ([2]; 323.15 K): 581.52 ± 27 J/K/mol

**Q.** With `CCCC[n+]1ccn(C)c1.O=S(=O)([N-]S(=O)(=O)C(F)(F)F)C(F)(F)F` + CNc1ccccc1 as the molecule, how does the viscosity ([3]; 298.15 K) read?
**A.** The viscosity was 49.24 ± 7.4 mPa·s.

**Q.** And the speed of sound ([3]; 298.15 K)?
**A.** The speed of sound was 1227.9 ± 1.1 m/s.

**Q.** What about the mass density ([3]; 298.15 K) of the same molecule?
**A.** Its mass density is 1436.62 ± 1.1 kg/m3.

**Q.** And the viscosity ([3]; 303.15 K)?
**A.** Its viscosity is 40 ± 6.5 mPa·s.

**Q.** And the speed of sound ([3]; 303.15 K)?
**A.** The speed of sound was 1216.8 ± 1.1 m/s.

**Q.** And the mass density ([3]; 303.15 K)?
**A.** The mass density was 1431.8 ± 1.1 kg/m3.

**Q.** And the viscosity ([3]; 308.15 K)?
**A.** Its viscosity is 33.02 ± 5 mPa·s.

**Q.** What about the speed of sound ([3]; 308.15 K) of the same molecule?
**A.** Its speed of sound is 1205.8 ± 1.1 m/s.

**Q.** What about the mass density ([3]; 308.15 K) of the same molecule?
**A.** The mass density was 1426.98 ± 1.1 kg/m3.

**Q.** And the viscosity ([3]; 313.15 K)?
**A.** The viscosity was 27.66 ± 3.9 mPa·s.

**Q.** And the speed of sound ([3]; 313.15 K)?
**A.** Its speed of sound is 1195 ± 1.1 m/s.

**Q.** And the mass density ([3]; 313.15 K)?
**A.** Its mass density is 1422.16 ± 1.1 kg/m3.

**Q.** And the viscosity ([3]; 318.15 K)?
**A.** The viscosity was 23.47 ± 3.1 mPa·s.

**Q.** And the speed of sound ([3]; 318.15 K)?
**A.** The speed of sound was 1184.2 ± 1.1 m/s.

**Q.** And the mass density ([3]; 318.15 K)?
**A.** The mass density was 1417.34 ± 1.1 kg/m3.

**Q.** What about the viscosity ([3]; 323.15 K) of the same molecule?
**A.** The viscosity was 20.15 ± 2.8 mPa·s.

**Q.** And the speed of sound ([3]; 323.15 K)?
**A.** Its speed of sound is 1173.6 ± 1.1 m/s.

**Q.** What about the mass density ([3]; 323.15 K) of the same molecule?
**A.** The mass density was 1412.52 ± 1.1 kg/m3.

**Q.** Which viscosity ([1]; 298.15 K) does the source give for `CCCCn1cc[n+](C)c1.F[P-](F)(F)(F)(F)F` [1-butyl-3-methylimidazolium hexafluorophosphate] here?
**A.** Its viscosity is 272.86 ± 56 mPa·s.

**Q.** And the speed of sound ([1]; 298.15 K)?
**A.** Its speed of sound is 1443.7 ± 3.2 m/s.

**Q.** And the mass density ([1]; 298.15 K)?
**A.** Its mass density is 1367.24 ± 1.1 kg/m3.

**Q.** And the viscosity ([1]; 303.15 K)?
**A.** Its viscosity is 204.1 ± 47 mPa·s.

**Q.** What about the speed of sound ([1]; 303.15 K) of the same molecule?
**A.** Its speed of sound is 1431.9 ± 3.2 m/s.

**Q.** And the mass density ([1]; 303.15 K)?
**A.** The mass density was 1363.08 ± 1.1 kg/m3.

**Q.** What about the viscosity ([1]; 308.15 K) of the same molecule?
**A.** The viscosity was 155.7 ± 33 mPa·s.

**Q.** And the speed of sound ([1]; 308.15 K)?
**A.** The speed of sound was 1420.1 ± 3.2 m/s.

**Q.** What about the mass density ([1]; 308.15 K) of the same molecule?
**A.** The mass density was 1358.91 ± 1.1 kg/m3.

**Q.** What about the viscosity ([1]; 313.15 K) of the same molecule?
**A.** Its viscosity is 120.9 ± 24 mPa·s.

**Q.** What about the speed of sound ([1]; 313.15 K) of the same molecule?
**A.** Its speed of sound is 1408.5 ± 3.2 m/s.

**Q.** And the mass density ([1]; 313.15 K)?
**A.** Its mass density is 1354.74 ± 1.1 kg/m3.

**Q.** And the viscosity ([1]; 318.15 K)?
**A.** The viscosity was 95.39 ± 18 mPa·s.

**Q.** And the speed of sound ([1]; 318.15 K)?
**A.** Its speed of sound is 1397.1 ± 3.2 m/s.

**Q.** What about the mass density ([1]; 318.15 K) of the same molecule?
**A.** Its mass density is 1350.58 ± 1.1 kg/m3.

**Q.** What about the viscosity ([1]; 323.15 K) of the same molecule?
**A.** The viscosity was 76.37 ± 15 mPa·s.

**Q.** And the speed of sound ([1]; 323.15 K)?
**A.** Its speed of sound is 1385.9 ± 3.2 m/s.

**Q.** And the mass density ([1]; 323.15 K)?
**A.** The mass density was 1346.41 ± 1.1 kg/m3.

**Q.** And the “molar heat capacity at constant pressure” value ([2]; 298.15 K)?
**A.** Its value is 407.08 ± 19 J/K/mol.

**Q.** What about the “molar heat capacity at constant pressure” value ([2]; 303.15 K) of the same molecule?
**A.** The value was 410.01 ± 19 J/K/mol.

**Q.** What about the “molar heat capacity at constant pressure” value ([2]; 308.15 K) of the same molecule?
**A.** The value was 412.77 ± 19 J/K/mol.

**Q.** And the “molar heat capacity at constant pressure” value ([2]; 313.15 K)?
**A.** Its value is 415.44 ± 19 J/K/mol.

**Q.** And the “molar heat capacity at constant pressure” value ([2]; 318.15 K)?
**A.** The value was 418.26 ± 19 J/K/mol.

**Q.** And the “molar heat capacity at constant pressure” value ([2]; 323.15 K)?
**A.** Its value is 421.21 ± 20 J/K/mol.

**Q.** Which results are given for `CCCCn1cc[n+](C)c1.F[P-](F)(F)(F)(F)F` [1-butyl-3-methylimidazolium hexafluorophosphate] + CNc1ccccc1?
**A.** viscosity ([3]; 298.15 K): 272.86 ± 57 mPa·s; speed of sound ([3]; 298.15 K): 1443.7 ± 3.2 m/s; mass density ([3]; 298.15 K): 1367.24 ± 1.1 kg/m3; viscosity ([3]; 303.15 K): 204.1 ± 48 mPa·s; speed of sound ([3]; 303.15 K): 1431.9 ± 3.2 m/s; mass density ([3]; 303.15 K): 1363.08 ± 1.1 kg/m3; viscosity ([3]; 308.15 K): 155.7 ± 34 mPa·s; speed of sound ([3]; 308.15 K): 1420.1 ± 3.2 m/s; mass density ([3]; 308.15 K): 1358.91 ± 1.1 kg/m3; viscosity ([3]; 313.15 K): 120.9 ± 24 mPa·s; speed of sound ([3]; 313.15 K): 1408.5 ± 3.2 m/s; mass density ([3]; 313.15 K): 1354.74 ± 1.1 kg/m3; viscosity ([3]; 318.15 K): 95.39 ± 18 mPa·s; speed of sound ([3]; 318.15 K): 1397.1 ± 3.2 m/s; mass density ([3]; 318.15 K): 1350.58 ± 1.1 kg/m3; viscosity ([3]; 323.15 K): 76.37 ± 15 mPa·s; speed of sound ([3]; 323.15 K): 1385.9 ± 3.2 m/s; mass density ([3]; 323.15 K): 1346.41 ± 1.1 kg/m3

**Q.** For `CNc1ccccc1` [N-methylaniline], which viscosity ([1]; 298.15 K) is on record?
**A.** The viscosity was 1.94 ± 0.62 mPa·s.

**Q.** What about the speed of sound ([1]; 298.15 K) of the same molecule?
**A.** The speed of sound was 1564.5 ± 0.7 m/s.

**Q.** And the mass density ([1]; 298.15 K)?
**A.** Its mass density is 982.7 ± 1.6 kg/m3.

**Q.** What about the viscosity ([1]; 303.15 K) of the same molecule?
**A.** Its viscosity is 1.73 ± 0.62 mPa·s.

**Q.** What about the speed of sound ([1]; 303.15 K) of the same molecule?
**A.** The speed of sound was 1546.1 ± 0.7 m/s.

**Q.** And the mass density ([1]; 303.15 K)?
**A.** The mass density was 978.59 ± 1.6 kg/m3.

**Q.** And the viscosity ([1]; 308.15 K)?
**A.** Its viscosity is 1.55 ± 0.61 mPa·s.

**Q.** What about the speed of sound ([1]; 308.15 K) of the same molecule?
**A.** Its speed of sound is 1528.3 ± 0.7 m/s.

**Q.** And the mass density ([1]; 308.15 K)?
**A.** The mass density was 974.47 ± 1.6 kg/m3.

**Q.** What about the viscosity ([1]; 313.15 K) of the same molecule?
**A.** The viscosity was 1.4 ± 0.61 mPa·s.

**Q.** And the speed of sound ([1]; 313.15 K)?
**A.** The speed of sound was 1511.5 ± 0.7 m/s.

**Q.** What about the mass density ([1]; 313.15 K) of the same molecule?
**A.** Its mass density is 970.36 ± 1.6 kg/m3.

**Q.** What about the viscosity ([1]; 318.15 K) of the same molecule?
**A.** The viscosity was 1.27 ± 0.61 mPa·s.

**Q.** And the speed of sound ([1]; 318.15 K)?
**A.** Its speed of sound is 1492.8 ± 0.7 m/s.

**Q.** What about the mass density ([1]; 318.15 K) of the same molecule?
**A.** Its mass density is 966.24 ± 1.6 kg/m3.

**Q.** What about the viscosity ([1]; 323.15 K) of the same molecule?
**A.** Its viscosity is 1.16 mPa·s.

**Q.** And the speed of sound ([1]; 323.15 K)?
**A.** Its speed of sound is 1476.2 ± 0.7 m/s.

**Q.** What about the mass density ([1]; 323.15 K) of the same molecule?
**A.** Its mass density is 962.13 ± 1.6 kg/m3.

**Q.** And the “molar heat capacity at constant pressure” value ([2]; 298.15 K)?
**A.** Its value is 207.12 ± 9.6 J/K/mol.

**Q.** And the “molar heat capacity at constant pressure” value ([2]; 303.15 K)?
**A.** Its value is 210.92 ± 9.8 J/K/mol.

**Q.** And the “molar heat capacity at constant pressure” value ([2]; 308.15 K)?
**A.** Its value is 214.73 ± 10 J/K/mol.

**Q.** And the “molar heat capacity at constant pressure” value ([2]; 313.15 K)?
**A.** Its value is 218.53 ± 10 J/K/mol.

**Q.** What about the “molar heat capacity at constant pressure” value ([2]; 318.15 K) of the same molecule?
**A.** Its value is 222.37 ± 10 J/K/mol.

**Q.** What about the “molar heat capacity at constant pressure” value ([2]; 323.15 K) of the same molecule?
**A.** Its value is 225.88 ± 10 J/K/mol.
